Among the data in patent US11319286B2, “Heterocyclic compound and application thereof” (Takeda Pharmaceutical Company Limited, priority 2017, dated 2022) are EC50 values, retold here.

In this test the target is T1, human orexin type 2 receptor (hOX2R) (Homo sapiens, UniProt O43614).
T1 construct: expressed in transfected cells
T1 sequence (O43614 1-444): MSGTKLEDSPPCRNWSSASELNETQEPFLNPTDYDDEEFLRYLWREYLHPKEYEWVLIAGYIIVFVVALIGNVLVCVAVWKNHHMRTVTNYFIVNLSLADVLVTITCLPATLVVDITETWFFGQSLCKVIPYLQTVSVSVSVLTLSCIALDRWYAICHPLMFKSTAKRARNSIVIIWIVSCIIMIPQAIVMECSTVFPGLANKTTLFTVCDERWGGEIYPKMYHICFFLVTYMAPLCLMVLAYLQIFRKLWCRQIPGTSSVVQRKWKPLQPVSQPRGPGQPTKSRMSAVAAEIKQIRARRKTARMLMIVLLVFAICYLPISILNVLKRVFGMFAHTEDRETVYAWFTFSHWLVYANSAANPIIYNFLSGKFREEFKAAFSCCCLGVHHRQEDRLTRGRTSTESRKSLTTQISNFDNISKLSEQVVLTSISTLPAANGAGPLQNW
The test is described as follows: Measurement of orexin type 2 receptor agonist activity (calcium fluorescence, Fluo-4 AM, FDSS). It counts as cell-based. The note with it: CHO cells forcibly expressing human OX2 receptor; 100% = orexin A (human) 10 nM, 0% = DMSO. The source says:
To obtain a cell clone stably expressing human orexin type 2 receptor, human orexin type 2 receptor cDNA was inserted into pcDNA3.1(+) plasmid vector (Invitrogen), and a plasmid DNA for expression of human orexin type 2 receptor (pcDNA3.1(+)/hOX2R) was cloned. The plasmid DNA was introduced into CHO-dhfr cell by an electroporation method, and human orexin type 2 receptor expressing clone cells were obtained by limiting dilution method by using G418 drug resistance as a selection marker.
CHO cells forcibly expressing human OX2 receptor were seeded in each well of 384 well black transparent bottom plate (BD Falcon) at 7,500 cells/well, and cultured for one day in a 5% CO2 incubator at 37° C. After removal of the medium in the cell plate, assay buffer A containing a calcium indicator (HBSS (Thermo Fisher Scientific), 20 mM HEPES (Thermo Fisher Scientific), 0.1% BSA (Wako Pure Chemical Industries, Ltd. or Sigma-Aldrich), 2.5 μg/mL Fluo-4 AM (DOJINDO Chemical), 0.08% Pluronic F127 (DOJINDO Chemical), 1.25 mM probenecid (DOJINDO Chemical)) was added at 30 μL/well. The plate was stood for 30 min in a 5% CO2 incubator at 37° C., and further stood at room temperature for 30 min. A test compound prepared by diluting with assay buffer B (HBSS, 20 mM HEPES, 0.1% BSA) was added at 10 μL/well, and the fluorescence value was measured by FDSSμCELL (Hamamatsu Photonics K.K.) every one sec for 1 min, and thereafter every two sec for 1 min 40 sec. The activity (%) of the test compound was calculated assuming that variation in the fluorescence value when DMSO was added instead of the test compound was 0%, and variation in the fluorescence value when orexin A (human) (PEPTIDE INSTITUTE, INC.) was added at the final concentration of 10 nM was 100%. Unless otherwise specified, the maximum agonist activity of each compound was 90% or more, when the maximum agonist activity of orexin A was considered as 100%.

What is called EC50 is the concentration needed to bring the measured effect to its halfway point. Turning to `COC(=O)N1CC[C@H](NS(C)(=O)=O)[C@@H]1CO[C@H]1CC[C@@H](c2ccccc2)CC1` (relative stereo) [Example 1, methyl cis-3-((methylsulfonyl)amino)-2-(((cis-4-phenylcyclohexyl)oxy)methyl)pyrrolidine-1-carboxylate], the EC50 stood at 130 nM.
For `CS(=O)(=O)N[C@H]1CCN[C@H]1CO[C@H]1CC[C@@H](c2ccccc2)CC1` (relative stereo) [Example 2, N-(cis-2-(((cis-4-phenylcyclohexyl)oxy)methyl)pyrrolidin-3-yl)methanesulfonamide] the value was 3600 nM.
For `CCOC(=O)N1CC[C@H](NS(C)(=O)=O)[C@@H]1CO[C@H]1CC[C@@H](c2ccccc2)CC1` (relative stereo) [Example 3, ethyl cis-3-((methylsulfonyl)amino)-2-(((cis-4-phenylcyclohexyl)oxy)methyl) pyrrolidine-1-carboxylate] the value was 240 nM; for `CS(=O)(=O)N[C@H]1CCN(C(=O)C2CC2)[C@H]1CO[C@H]1CC[C@@H](c2ccccc2)CC1` (relative stereo) [Example 4, N-(cis-1-(cyclopropylcarbonyl)-2-(((cis-4-phenylcyclohexyl)oxy)methyl)pyrrolidin-3-yl)methanesulfonamide], 47 nM; for `CS(=O)(=O)N[C@H]1CCN(C(=O)CC(F)(F)F)[C@H]1CO[C@H]1CC[C@@H](c2ccccc2)CC1` (relative stereo) [Example 5, N-(cis-2-(((cis-4-phenylcyclohexyl)oxy)methyl)-1-(3,3,3-trifluoropropanoyl)pyrrolidin-3-yl)methanesulfonamide], 760 nM.
For `CS(=O)(=O)N[C@H]1CCN(C(=O)N2CCC2)[C@H]1CO[C@H]1CC[C@@H](c2ccccc2)CC1` (relative stereo) [Example 6, N-(cis-1-(azetidin-1-ylcarbonyl)-2-(((cis-4-phenylcyclohexyl)oxy)methyl)pyrrolidin-3-yl)methanesulfonamide] the value was 17 nM.
As for `CS(=O)(=O)N[C@H]1CCN(C(=O)C2CCC2)[C@H]1CO[C@H]1CC[C@@H](c2ccccc2)CC1` (relative stereo) [Example 7, N-(cis-1-(cyclobutylcarbonyl)-2-(((cis-4-phenylcyclohexyl)oxy)methyl)pyrrolidin-3-yl)methanesulfonamide], the EC50 is 40 nM.
For `CN(C)C(=O)N1CC[C@H](NS(C)(=O)=O)[C@@H]1CO[C@H]1CC[C@@H](c2ccccc2)CC1` (relative stereo) [Example 8, cis-N,N-dimethyl-3-((methylsulfonyl)amino)-2-(((cis-4-phenylcyclohexyl)oxy)methyl)pyrrolidine-1-carboxamide] the value was 13 nM; for `CN(C)C(=O)N1CC[C@H](NS(C)(=O)=O)[C@@H]1CO[C@H]1CC[C@@H](c2ccccc2C(F)(F)F)CC1` (relative stereo) [Example 9, cis-3-((methanesulfonyl)amino)-N,N-dimethyl-2-(((cis-4-(2-(trifluoromethyl)phenyl)cyclohexyl)oxy)methyl)pyrrolidine-1-carboxamide], 270 nM.
Next, `CC(C)(O)C(=O)N1CC[C@H](NS(C)(=O)=O)[C@@H]1CO[C@H]1CC[C@@H](c2ccccc2)CC1` (relative stereo) [Example 10, N-(cis-1-(2-hydroxy-2-methylpropanoyl)-2-(((cis-4-phenylcyclohexyl)oxy)methyl)pyrrolidin-3-yl)methanesulfonamide]: 410 nM.
Next, `CN(C)C(=O)N1CC[C@H](NS(C)(=O)=O)[C@@H]1COC1CCN(c2ncc(F)cn2)CC1` (relative stereo) [Example 11, cis-2-(((1-(5-fluoropyrimidin-2-yl)piperidin-4-yl)oxy)methyl)-3-((methanesulfonyl)amino)-N,N-dimethylpyrrolidine-1-carboxamide]: 82 nM.
